This assay relates to T1, mKCNK18.
T1 construct: expressed in transfected cells; host or cells: Xenopus laevis oocytes injected with cRNA (subcloned into pSGEM; clone from Prof; Dr. P. Enyedi)
Kind of assay: Two-electrode voltage clamp on Xenopus oocytes expressing mKCNK18. The settings on record: 1–1000 μM. The class given is cell-based, mouse. An excerpt:
Human KCNK3 (TASK-1, K2P3.1) cloned into the expression vector pIRES-CD8 was a gift from Dr. Fabrice Duprat (Institut National de la Santé et de la Recherche Médicale, Antipolis, France). Human KCNK18 (hTRESK, K2P18.1), cloned into the plasmid pEXO, was a gift from Dr. P. Enyedi (Semmelweis University, Budapest, Hungary). These plasmids were linearized with the restriction enzymes BamHI and XbaI, respectively, and then used as templates for in vitro transcription. Human KCNK9 (hTASK-3, K2P9.1) cloned into the expression vector pCR4-TOPO, was purchased from Imagenes (Berlin, Germany). The plasmid was linearized with the restriction enzyme SspI, to generate a linear cDNA template for in vitro transcription. mKCNK3 was isolated from mouse heart by standard procedures and inserted into pSGEM. mKCNK9 and mKCNK18 were kindly provided by Dr. D. Bayliss (University of Virginia, Charlottesville, VA, United States) and Prof. Dr. P. Enyedi (Semmelweis University, Budapest, Hungary). Both channels were subcloned into pSGEM. The pSGEM plasmids were subsequently linearized with the restriction enzyme PacI. The capped RNAs were synthesized in the presence of the capping analog m7G(5′)ppp(5′)G using the AmpliCap-T7 Message Maker kit (Epicentre, Madison, WI, United States). The cRNA was dissolved in nuclease-free water to obtain a final concentration of 100 ng/μL. […]

For `O=C(/C=C/C=C/c1ccc2c(c1)OCO2)N1CCCCC1` [1a, piperine], the “effect on mKCNK18” value was “much less affected”.

The values above are taken from article PMC5483439, “The Effect of Pungent and Tingling Compounds from Piper nigrum L. on Background K^+ Currents” (Frontiers in Pharmacology, 2017).
